# Measured values published in article PMC4965013, “Open Source Drug Discovery with the Malaria Box Compound Collection for Neglected Diseases and Beyond” (PLoS Pathogens, 2016).
# Tests used:
# [1] = system: P. falciparum 3D7 trophozoites; assay: Metabolomic fingerprint profiling LC-MS; type: cell-based, Plasmodium falciparum; parameters: UDP-D-glucose / ADP-D-glucose: unit not given here; conditions: for Acetyllysine / N-acetyl-L-ornithine / N-carbamoyl-L-aspartate / NADPH / dAMP / dCMP / dTDP / dTMP / dTTP / dihydroorotate / orotate / DLH / DLS/SDL/SID / PD / PEE / PVNF / 3-phosphoglycerate / ADP-D-glucose / ATP / CDP / D-sedoheptulose-1/7-phosphate / FAD / GMP / NAD+ / NADP+ / Octoluse Bisphosphate / Pyroglutamic acid / UDP-D-glucose / UDP-D-glucuronate / UDP-N-acetyl-glucosamine / UDP / UMP / UTP / a-ketoglutarate / citrate/isocitrate / cytidine / dATP / dGMP/AMP / fumarate / glucose-1/6-phosphate / glycerate / guanine / guanosine / hypoxanthine / indole / inosine / nicotinate / ornithine / phosphoenolpyruvate / pyruvate / ribose-phosphate / sarcosine/alanine / sn-glycerol-3-phosphate / succinate/methylmalonic acid / uridine / xanthosine: S2 Table Metabolomics; for Acetyllysine: metabolite Acetyllysine; for N-acetyl-L-ornithine: metabolite N-acetyl-L-ornithine; for N-carbamoyl-L-aspartate: metabolite N-carbamoyl-L-aspartate; for NADPH: metabolite NADPH; for dAMP: metabolite dAMP; for dCMP: metabolite dCMP; for dTDP: metabolite dTDP; for dTMP: metabolite dTMP; for dTTP: metabolite dTTP; for dihydroorotate: metabolite dihydroorotate; for orotate: metabolite orotate; for DLH: peptide DLH; for DLS/SDL/SID: peptide DLS/SDL/SID; for PD: peptide PD; for PEE: peptide PEE; for PVNF: peptide PVNF; for 3-phosphoglycerate: metabolite 3-phosphoglycerate; for ADP-D-glucose: metabolite ADP-D-glucose; for ATP: metabolite ATP; for CDP: metabolite CDP; for CDP / D-sedoheptulose-1/7-phosphate / GMP / Octoluse Bisphosphate / UDP / UMP / UTP / citrate/isocitrate / dGMP/AMP / fumarate / glucose-1/6-phosphate / glycerate / guanine / guanosine / inosine / pyruvate / sarcosine/alanine / succinate/methylmalonic acid / uridine / xanthosine: change in metabolite level after compound treatment; for D-sedoheptulose-1/7-phosphate: metabolite D-sedoheptulose-1/7-phosphate; for FAD: metabolite FAD; for GMP: metabolite GMP; for NAD+: metabolite NAD+; for NADP+: metabolite NADP+; for Octoluse Bisphosphate: metabolite Octoluse Bisphosphate; for Pyroglutamic acid: metabolite Pyroglutamic acid; for UDP-D-glucose: metabolite UDP-D-glucose; for UDP-D-glucuronate: metabolite UDP-D-glucuronate; for UDP-N-acetyl-glucosamine: metabolite UDP-N-acetyl-glucosamine; for UDP: metabolite UDP; for UMP: metabolite UMP; for UTP: metabolite UTP; for a-ketoglutarate: metabolite a-ketoglutarate; for citrate/isocitrate: metabolite citrate/isocitrate; for cytidine: metabolite cytidine; for dATP: metabolite dATP; for dGMP/AMP: metabolite dGMP/AMP; for fumarate: metabolite fumarate; for glucose-1/6-phosphate: metabolite glucose-1/6-phosphate; for glycerate: metabolite glycerate; for guanine: metabolite guanine; for guanosine: metabolite guanosine; for hypoxanthine: metabolite hypoxanthine; for indole: metabolite indole; for inosine: metabolite inosine; for 2_3-Diphosphoglyceric acid / 4-phosphopantothenate / 6-phospho-D-gluconate / FMN / IMP / Pyrophosphate / Sedoheptoluse bisphosphate / cyclic-AMP / glutathione disulfide / lactate / myo-inositol: metabolite level change after treatment; for nicotinate: metabolite nicotinate; for ornithine: metabolite ornithine; for phosphoenolpyruvate: metabolite phosphoenolpyruvate; for pyruvate: metabolite pyruvate; for ribose-phosphate: metabolite ribose-phosphate; for sarcosine/alanine: metabolite sarcosine/alanine; for sn-glycerol-3-phosphate: metabolite sn-glycerol-3-phosphate; for succinate/methylmalonic acid: metabolite succinate/methylmalonic acid; for uridine: metabolite uridine; for xanthosine: metabolite xanthosine
# P. falciparum = assay: EC50 listed in S2 Table Metabolomics (used to set the concentration tested); type: cell-based; conditions: Plasmodium falciparum; EC50 used for Factor_XEC50 in metabolomics; read-out: EC50_nM
structure (smiles),measurement,setting,value
COc1ccc(C(C)=O)cc1N1C(=O)C2C(C1=O)C1(c3ccccc3)C(=O)C2(c2ccccc2)C(c2ccc(C)cc2)=C1c1ccc(C)cc1 (stereo not drawn) [MMV007695],Acetyllysine,[1],-0.2737
same,N-acetyl-L-ornithine,[1],-0.4583
same,N-carbamoyl-L-aspartate,[1],0.3458
same,NADPH,[1],1.835
same,dAMP,[1],0.454
same,dCMP,[1],-0.0001746
same,dTDP,[1],0.6225
same,dTMP,[1],0.1739
same,dTTP,[1],0.01162
same,dihydroorotate,[1],-0.0741
same,orotate,[1],0.786
same,DLH,[1],0.4365
same,DLS/SDL/SID,[1],0.2312
same,PD,[1],-1.42
same,PEE,[1],0.3408
same,PVNF,[1],0.2956
same,3-phosphoglycerate,[1],-0.5907
same,ADP-D-glucose,[1],0.2728
same,ATP,[1],0.4735
same,CDP,[1],0.708
same,D-sedoheptulose-1/7-phosphate,[1],1.674
same,FAD,[1],0.07228
same,GMP,[1],-0.9101
same,NAD+,[1],0.2072
same,NADP+,[1],0.5403
same,Octoluse Bisphosphate,[1],-1.5013
same,Pyroglutamic acid,[1],0.5983
same,UDP-D-glucose,[1],0.2909
same,UDP-D-glucuronate,[1],0.7314
same,UDP-N-acetyl-glucosamine,[1],0.05292
same,UDP,[1],0.6476
same,UMP,[1],-1.868
same,UTP,[1],0.1535
same,a-ketoglutarate,[1],0.5943
same,citrate/isocitrate,[1],1.421
same,cytidine,[1],0.7161
same,dATP,[1],0.1897
same,dGMP/AMP,[1],0.2576
same,fumarate,[1],-0.8988
same,glucose-1/6-phosphate,[1],-0.6568
same,glycerate,[1],-0.4271
same,guanine,[1],0.5906
same,guanosine,[1],-0.9684
same,hypoxanthine,[1],0.7986
same,indole,[1],0.2572
same,inosine,[1],-0.5212
same,2_3-Diphosphoglyceric acid,[1],-0.9184
same,4-phosphopantothenate,[1],-0.9898
same,6-phospho-D-gluconate,[1],-0.8607
same,FMN,[1],-0.08531
same,IMP,[1],-0.684
same,Pyrophosphate,[1],-1.54
same,Sedoheptoluse bisphosphate,[1],-1.405
same,cyclic-AMP,[1],-0.504
same,glutathione disulfide,[1],-0.8249
same,lactate,[1],-1.404
same,myo-inositol,[1],-3.565
same,nicotinate,[1],1.458
same,ornithine,[1],-0.113
same,phosphoenolpyruvate,[1],-0.01223
same,pyruvate,[1],-0.001929
same,ribose-phosphate,[1],-0.0001746
same,sarcosine/alanine,[1],-1.812
same,sn-glycerol-3-phosphate,[1],-1.169
same,succinate/methylmalonic acid,[1],0.009176
same,uridine,[1],0.3917
same,xanthosine,[1],0.304
same,EC50,P. falciparum,179 nM
Cc1ccc(-c2cc3nc4c(c(O)n3n2)CCCC4)cc1 [MMV006937],Acetyllysine,[1],0.001543
same,N-acetyl-L-ornithine,[1],-0.1685
same,N-carbamoyl-L-aspartate,[1],1.991
same,NADPH,[1],-0.4265
same,dAMP,[1],-0.0863
same,dCMP,[1],-1.279
same,dTDP,[1],-1.586
same,dTMP,[1],-1.181
same,dTTP,[1],-2.058
same,dihydroorotate,[1],2.759
same,orotate,[1],-1.871
same,DLH,[1],-0.331
same,DLS/SDL/SID,[1],-0.7353
same,PD,[1],0.3712
same,PEE,[1],-0.2807
same,PVNF,[1],-1.612
same,3-phosphoglycerate,[1],-0.6487
same,ADP-D-glucose,[1],-0.1406
same,ATP,[1],-0.4135
same,CDP,[1],-1.006
same,D-sedoheptulose-1/7-phosphate,[1],0.1087
same,FAD,[1],0.1332
same,GMP,[1],-0.07362
same,NAD+,[1],1.3162
same,NADP+,[1],-0.2641
same,Octoluse Bisphosphate,[1],-0.3
same,Pyroglutamic acid,[1],-0.3275
same,UDP-D-glucose,[1],-0.04224
same,UDP-D-glucuronate,[1],-0.6063
same,UDP-N-acetyl-glucosamine,[1],-0.2962
same,UDP,[1],-1.454
same,UMP,[1],-1.3
same,UTP,[1],-2.161
same,a-ketoglutarate,[1],-0.5175
same,citrate/isocitrate,[1],-0.9752
same,cytidine,[1],0.2747
same,dATP,[1],0.08499
same,dGMP/AMP,[1],-0.2088
same,fumarate,[1],0.7624
same,glucose-1/6-phosphate,[1],-0.09446
same,glycerate,[1],0.7002
same,guanine,[1],0.3064
same,guanosine,[1],0.2389
same,hypoxanthine,[1],-0.05386
same,indole,[1],-0.1272
same,inosine,[1],-0.07571
same,2_3-Diphosphoglyceric acid,[1],-0.6436
same,4-phosphopantothenate,[1],-0.3901
same,6-phospho-D-gluconate,[1],-0.1214
same,FMN,[1],-0.5746
same,IMP,[1],0.1416
same,Pyrophosphate,[1],-0.6696
same,Sedoheptoluse bisphosphate,[1],0.01407
same,cyclic-AMP,[1],-0.2332
same,glutathione disulfide,[1],0.02779
same,lactate,[1],-0.3487
same,myo-inositol,[1],0.03438
same,nicotinate,[1],-0.2273
same,ornithine,[1],-0.08655
same,phosphoenolpyruvate,[1],-0.5043
same,pyruvate,[1],-0.2395
same,ribose-phosphate,[1],0.1461
same,sarcosine/alanine,[1],0.1551
same,sn-glycerol-3-phosphate,[1],-0.1355
same,succinate/methylmalonic acid,[1],-0.2134
same,uridine,[1],-0.8059
same,xanthosine,[1],-0.1801
same,EC50,P. falciparum,396 nM
Fc1ccc2[nH]c3c(NCCCN4CCOCC4)ncnc3c2c1 [MMV019871],Acetyllysine,[1],-0.8876
same,N-acetyl-L-ornithine,[1],-0.1209
same,N-carbamoyl-L-aspartate,[1],0.08503
same,NADPH,[1],0.6093
same,dAMP,[1],0.6696
same,dCMP,[1],-0.1368
same,dTDP,[1],0.799
same,dTMP,[1],0.8196
same,dTTP,[1],0.3182
same,dihydroorotate,[1],0.6163
same,orotate,[1],0.06699
same,DLH,[1],-1.437
same,DLS/SDL/SID,[1],-0.7695
same,PD,[1],-0.933
same,PEE,[1],-0.4641
same,PVNF,[1],-1.358
same,3-phosphoglycerate,[1],-0.4045
same,ADP-D-glucose,[1],-0.2501
same,ATP,[1],-0.2422
same,CDP,[1],0.8712
same,D-sedoheptulose-1/7-phosphate,[1],0.6203
same,FAD,[1],-0.1788
same,GMP,[1],0.008366
same,NAD+,[1],-0.1288
same,NADP+,[1],-0.2271
same,Octoluse Bisphosphate,[1],-0.5075
same,Pyroglutamic acid,[1],0.06535
same,UDP-D-glucose,[1],-0.1274
same,UDP-D-glucuronate,[1],-0.1958
same,UDP-N-acetyl-glucosamine,[1],-0.09954
same,UDP,[1],0.8844
same,UMP,[1],-0.5999
same,UTP,[1],-0.2069
same,a-ketoglutarate,[1],-0.1645
same,citrate/isocitrate,[1],-0.2521
same,cytidine,[1],-0.343
same,dATP,[1],-0.2053
same,dGMP/AMP,[1],0.4546
same,fumarate,[1],-0.6533
same,glucose-1/6-phosphate,[1],-0.1277
same,glycerate,[1],-0.2409
same,guanine,[1],0.2236
same,guanosine,[1],0.1132
same,hypoxanthine,[1],0.02159
same,indole,[1],-0.3008
same,inosine,[1],0.02443
same,2_3-Diphosphoglyceric acid,[1],-0.241
same,4-phosphopantothenate,[1],-0.03538
same,6-phospho-D-gluconate,[1],-0.1618
same,FMN,[1],0.07605
same,IMP,[1],0.1512
same,Pyrophosphate,[1],-0.1841
same,Sedoheptoluse bisphosphate,[1],-0.3231
same,cyclic-AMP,[1],-0.2059
same,glutathione disulfide,[1],-0.2521
same,lactate,[1],0.01945
same,myo-inositol,[1],0.08413
same,nicotinate,[1],0.1601
same,ornithine,[1],0.04638
same,phosphoenolpyruvate,[1],-0.3024
same,pyruvate,[1],0.2194
same,ribose-phosphate,[1],-0.9686
same,sarcosine/alanine,[1],-0.2747
same,sn-glycerol-3-phosphate,[1],-0.2288
same,succinate/methylmalonic acid,[1],-0.1938
same,uridine,[1],0.09395
same,xanthosine,[1],-0.4756
same,EC50,P. falciparum,345 nM
